Values joined by “and” are separate entries in the source; they are usually repeats but may differ in a detail not shown here. Equal values may be shown once. Inconclusive results and toxic doses are left out. No stated cut-off is given here; in the data, active means T/C of 150% or more; inactive means T/C below 125%.
Tested on: L1210 leukemia ip in BDF1 mice, survival T/C
Test: NCI In Vivo Anticancer Drug Screen. Data for tumor model L1210 Leukemia (intraperitoneal) in B6D2F1 (BDF1) mice
Details: endpoint: mean survival time, higher = longer survival
Outline: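 Value reflects the ratio of survival in compound-treated mice to survival in vehicle-treated controls, with both groups carrying the same transplanted tumor.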

[1] = dose: 25.0 mg/kg/injection, schedule: Q04DX003 (ip), vehicle: Klucel (hydroxypropylcellulose) (HPC)
[2] = dose: 25.0 mg/kg/injection, schedule: Q01DX009 (ip), vehicle: saline with Tween-80
[3] = dose: 100.0 mg/kg/injection, schedule: Q01DX001 (ip), vehicle: saline with Tween-80
[4] = dose: 100.0 mg/kg/injection, schedule: Q04DX003 (ip), vehicle: saline with Tween-80
[5] = dose: 200.0 mg/kg/injection, schedule: Q01DX001 (ip), vehicle: saline with Tween-80
[6] = dose: 200.0 mg/kg/injection, schedule: Q04DX003 (ip), vehicle: saline with Tween-80
[7] = dose: 400.0 mg/kg/injection, schedule: Q04DX003 (ip), vehicle: saline with Tween-80
[8] = dose: 100.0 mg/kg/injection, schedule: Q01DX009 (ip), vehicle: Klucel (hydroxypropylcellulose) (HPC)
[9] = dose: 200.0 mg/kg/injection, schedule: Q01DX009 (ip), vehicle: Klucel (hydroxypropylcellulose) (HPC)
[10] = dose: 400.0 mg/kg/injection, schedule: Q01DX009 (ip), vehicle: Klucel (hydroxypropylcellulose) (HPC)
[11] = dose: 100.0 mg/kg/injection, schedule: Q01DX009 (ip), vehicle: saline
[12] = dose: 200.0 mg/kg/injection, schedule: Q01DX009 (ip), vehicle: saline
[13] = dose: 400.0 mg/kg/injection, schedule: Q01DX009 (ip), vehicle: saline
[14] = dose: 12.5 mg/kg/injection, schedule: Q01DX009 (ip), vehicle: saline
[15] = dose: 25.0 mg/kg/injection, schedule: Q01DX009 (ip), vehicle: saline
[16] = dose: 50.0 mg/kg/injection, schedule: Q01DX009 (ip), vehicle: saline

Measured: T/C

COc1cc2[nH]c(C)c(CCN3CCN(c4ccccc4)CC3)c2cc1OC
inactive: dose: 3.12 mg/kg/injection, schedule: Q01DX009 (ip), vehicle: Klucel (hydroxypropylcellulose) (HPC) 104 % of control | dose: 6.25 mg/kg/injection, schedule: Q01DX009 (ip), vehicle: Klucel (hydroxypropylcellulose) (HPC) 108 % of control | dose: 12.5 mg/kg/injection, schedule: Q01DX009 (ip), vehicle: Klucel (hydroxypropylcellulose) (HPC) 96 % of control | dose: 25.0 mg/kg/injection, schedule: Q01DX009 (ip), vehicle: Klucel (hydroxypropylcellulose) (HPC) 105 % of control | [1] 106 % of control | dose: 50.0 mg/kg/injection, schedule: Q04DX003 (ip), vehicle: Klucel (hydroxypropylcellulose) (HPC) 106 % of control

CSc1ccc(NC(=O)Oc2ccc3c(C)cc(=O)oc3c2)cc1
inactive: [2] 93 % of control and 100 % of control | dose: 50.0 mg/kg/injection, schedule: Q01DX009 (ip), vehicle: saline with Tween-80 95 % of control and 89 % of control | [3] 94 % of control | dose: 100.0 mg/kg/injection, schedule: Q04DX002 (ip), vehicle: saline with Tween-80 98 % of control and 91 % of control | [4] 87 % of control | [5] 94 % of control | dose: 200.0 mg/kg/injection, schedule: Q04DX002 (ip), vehicle: saline with Tween-80 94 % of control and 91 % of control | [6] 86 % of control | dose: 400.0 mg/kg/injection, schedule: Q01DX001 (ip), vehicle: saline with Tween-80 96 % of control | dose: 400.0 mg/kg/injection, schedule: Q04DX002 (ip), vehicle: saline with Tween-80 96 % of control and 98 % of control | [7] 95 % of control

CCCCCCCCCCCCCCCCCC(=O)OCCCCCCC
inactive: [8] 102 % of control | [9] 102 % of control | [10] 112 % of control

Cc1ccc(COC(=O)c2cccnc2)cc1
inactive: dose: 100.0 mg/kg/injection, schedule: Q01DX001 (ip), vehicle: Klucel (hydroxypropylcellulose) (HPC) 103 % of control | dose: 200.0 mg/kg/injection, schedule: Q01DX001 (ip), vehicle: Klucel (hydroxypropylcellulose) (HPC) 100 % of control | dose: 400.0 mg/kg/injection, schedule: Q01DX001 (ip), vehicle: Klucel (hydroxypropylcellulose) (HPC) 103 % of control

Nc1ncnc2c1ncn2C1OC(C(=O)NO)C(O)C1O (stereo not given)
inactive: dose: 0.78 mg/kg/injection, schedule: Q01DX009 (ip), vehicle: saline 106 % of control | dose: 1.56 mg/kg/injection, schedule: Q01DX005 (ip), vehicle: saline 104 % of control | dose: 1.56 mg/kg/injection, schedule: Q01DX009 (ip), vehicle: saline 123 % of control | dose: 3.12 mg/kg/injection, schedule: Q01DX005 (ip), vehicle: saline 121 % of control

Cc1ccc(-c2cc(-c3ccccc3)no2)cc1
inactive: [8] 97 % of control | dose: 100.0 mg/kg/injection, schedule: Q04DX003 (ip), vehicle: Klucel (hydroxypropylcellulose) (HPC) 102 % of control | [9] 95 % of control | dose: 200.0 mg/kg/injection, schedule: Q04DX003 (ip), vehicle: Klucel (hydroxypropylcellulose) (HPC) 102 % of control | [10] 95 % of control | dose: 400.0 mg/kg/injection, schedule: Q04DX003 (ip), vehicle: Klucel (hydroxypropylcellulose) (HPC) 93 % of control

CCN(CC)CCN(Cc1ccccc1)C(=O)C(O)(c1ccccc1)c1ccccc1
inactive: [3] 105 % of control | [5] 108 % of control

C[N+](C)(C)/N=C/C1=C(Cl)CCCC1
inactive: dose: 3.13 mg/kg/injection, schedule: Q04DX002 (ip), vehicle: Klucel (hydroxypropylcellulose) (HPC) 94 % of control | dose: 6.25 mg/kg/injection, schedule: Q04DX002 (ip), vehicle: Klucel (hydroxypropylcellulose) (HPC) 102 % of control | dose: 12.5 mg/kg/injection, schedule: Q04DX002 (ip), vehicle: Klucel (hydroxypropylcellulose) (HPC) 97 % of control | dose: 75.0 mg/kg/injection, schedule: Q01DX001 (ip), vehicle: carboxymethylcellulose (CMC) 114 % of control

O=C1CCCc2ccc(Cl)cc21
inactive: [11] 96 % of control | [12] 97 % of control | [13] 94 % of control

C=C(Br)CN=C=S
inactive: [14] 96 % of control | [15] 104 % of control | [16] 102 % of control

COc1ccc2c(n1)Sc1c(N)nc(N)nc1N2
inactive: [8] 103 % of control | [9] 103 % of control | [10] 88 % of control

C[N+](C)(C)/N=C\C1CC=CCC1 (stereo not given)
inactive: [14] 99 % of control | [15] 96 % of control | [16] 99 % of control and 105 % of control

Clc1c(CBr)ccc(CBr)c1Cl
inactive: dose: 6.25 mg/kg/injection, schedule: Q01DX009 (ip), vehicle: saline with Tween-80 91 % of control | dose: 6.25 mg/kg/injection, schedule: Q04DX003 (ip), vehicle: Klucel (hydroxypropylcellulose) (HPC) 95 % of control | dose: 12.5 mg/kg/injection, schedule: Q01DX009 (ip), vehicle: saline with Tween-80 89 % of control | dose: 12.5 mg/kg/injection, schedule: Q04DX003 (ip), vehicle: Klucel (hydroxypropylcellulose) (HPC) 92 % of control | [2] 96 % of control | [1] 93 % of control

CC(C)(C#N)NC(N)=O
inactive: dose: 100.0 mg/kg/injection, schedule: Q01DX001 (ip), vehicle: saline 101 % of control | [11] 103 % of control | dose: 100.0 mg/kg/injection, schedule: Q04DX003 (ip), vehicle: saline 107 % of control | dose: 200.0 mg/kg/injection, schedule: Q01DX001 (ip), vehicle: saline 102 % of control | [12] 102 % of control | dose: 200.0 mg/kg/injection, schedule: Q04DX003 (ip), vehicle: saline 104 % of control | dose: 400.0 mg/kg/injection, schedule: Q01DX001 (ip), vehicle: saline 98 % of control | [13] 97 % of control | dose: 400.0 mg/kg/injection, schedule: Q04DX003 (ip), vehicle: saline 102 % of control

CC(CN=Cc1ccccc1[O-])N=Cc1ccccc1[O-].[O]=[V] (stereo not given)
inactive: dose: 5.0 mg/kg/injection, schedule: Q01DX009 (ip), vehicle: saline with Tween-80 94 % of control | dose: 10.0 mg/kg/injection, schedule: Q01DX009 (ip), vehicle: saline with Tween-80 91 % of control | dose: 20.0 mg/kg/injection, schedule: Q01DX009 (ip), vehicle: saline with Tween-80 97 % of control

COc1ccc(/C=N\NC(=O)OC(C)(C)C)c(OC)c1OC
inactive: dose: 100.0 mg/kg/injection, schedule: Q01DX009 (ip), vehicle: acetone 104 % of control | [4] 105 % of control | dose: 200.0 mg/kg/injection, schedule: Q01DX009 (ip), vehicle: acetone 94 % of control | [6] 112 % of control | dose: 400.0 mg/kg/injection, schedule: Q01DX009 (ip), vehicle: acetone 96 % of control | [7] 112 % of control

CC1CCc2ccccc2N1CCN (stereo not given)
inactive: [15] 103 % of control | [16] 103 % of control | [11] 97 % of control

O=C(O)c1ccccc1SSc1ccccc1C(=O)O
inactive: dose: 50.0 mg/kg/injection, schedule: Q01DX001 (ip), vehicle: carboxymethylcellulose (CMC) 100 % of control | dose: 100.0 mg/kg/injection, schedule: Q01DX001 (ip), vehicle: carboxymethylcellulose (CMC) 100 % of control | dose: 200.0 mg/kg/injection, schedule: Q01DX001 (ip), vehicle: carboxymethylcellulose (CMC) 96 % of control | dose: 400.0 mg/kg/injection, schedule: Q01DX001 (ip), vehicle: carboxymethylcellulose (CMC) 103 % of control

CCCCC(OC(=O)c1ccc([N+](=O)[O-])cc1)C(C)[N+](=O)[O-] (stereo not given)
inactive: dose: 100.0 mg/kg/injection, schedule: Q01DX009 (ip), vehicle: saline with Tween-80 94 % of control | dose: 200.0 mg/kg/injection, schedule: Q01DX009 (ip), vehicle: saline with Tween-80 97 % of control | dose: 400.0 mg/kg/injection, schedule: Q01DX009 (ip), vehicle: saline with Tween-80 92 % of control

Reference: PubChem BioAssay AID248 (DTP/NCI, 2004)
